Patent US20240091267A1, “PRE-TREATMENT OF MSC WITH PPARB/DELTA AGONIST FOR TREATMENT OF ISCHEMIA-REPERFUSION INJURY” (Universite de Montpellier, priority 2020, published 2024)

Test system: H9c2 cardiomyocytes
Assay: Transwell co-culture of MSC with H9c2 exposed to H2O2, specific DNA fragmentation in H9c2
Assay type: cell-based, rattus norvegicus
Settings: vs naive MSC
Description: FIG. 7: Increased anti-apoptotic effects of PPARβ/δ-primed MSC on cardiomyocytes. (A) After 24 hours of MSC pharmacological preconditioning using PPARβ/δ agonist, cells were co-cultured using transwells (upper chamber) with H9c2 (lower chamber). Both cultures were exposed to 4 hours of 350 μM of H2O2 in minimal medium (serum deprivation). At the end of the protocol, specific DNA fragmentation was quantified in H9c2 cells and values were compared with those obtained for co-cultures with naive MSC or MSC pre-treated with PPARβ/δ antagonists (GSK0660 or GSK03787) and exposed to 350 H2O2μM (B, C, D) Scatter dot plot and bars were presented for specific DNA fragmentation quantified in H9c2 at the end of the protocols. Data (mean±SD for each group of treatment) were normalized by values obtained with naive MSC/H2O2 and compared using Kruskal-Wallis (Dunn's post hoc test). (B): data were obtained using the condition 1 protocol. (C): the condition 2 protocol P was followed and p value was noted **** for p<0.0001 (MSC, n=16 independent cultures vs MSC/H2O2, n=18). For the data obtained with condition 3 protocol (D), p value was noted * for p=0.0436 (MSC+1 μM GSK0660/H2O2, n=6 vs MSC/H2O2, n=10).
H9c2, rattus norvegicus cardiomyocytes, were cultured in Dulbecco's modified Eagle's medium (DMEM), supplemented with 10% fetal bovine serum (FBS), 100 Units/mL penicillin, and 100 μg/mL streptomycin. To induce apoptosis, H9c2 were cultured in a minimal medium (without FBS) containing 350 μM of H2O2 during 4 hours. In order to evaluate the effect of MSCs on cardiomyocytes, a co-culture assay was designed using the transwell system to avoid cell-cell contact. 15,000 cardiomyocytes (lower part) were plated per well of a 12-well dish with or 15,000 MSC (upper part) in presence of 350 OA of H2O2. Two different protocols of co-culture were performed. In protocol 1, H9c2 and co-cultured MSC were exposed to H2O2(with serum deprivation). In protocol 2, H9c2 were exposed to H2O2 in minimal medium during 4 hours and after a wash, cells were co-cultured in complete medium with MSC. In protocol 3, H9c2 were cultured in presence of H2O2 during 4 hours in regular medium deprived in serum, which was continued for an extra 1 hour. Then the co-culture of H9c2 with MSC was performed in complete medium for 1 hour. At the end of all protocols, H9c2 were recovered for apoptosis and RT-qPCR analysis.
DNA fragmentation was quantified in vitro on cell lysates with an enzyme-linked immunosorbent assay kit (Cell Death ELISA; Roche Diagnostics) designed to measure of histone-complexed DNA fragments (mono- and oligonucleosomes) out of the cytoplasm of cells after the induction of apoptosis.
To determine the role of PPARβ/δ on MSC-induced protective effect on cardiomyocytes we designed and developed three protocols in order to mimic the stress received by MSC when transplanted into infarcted tissues. The first protocol consisted in co-culturing naive or primed MSC with H9c2 exposed to 350 μM of H2O2 for 4 hours using transwell. The second protocol consisted in exposing […] μM of H2O2 for 4 hours before to co-culture them with naive or primed MSC in a complete medium. The third protocol consisted in exposing H9c2 to 350 μM of H2O2 for 4 hours followed by serum deprivation for 1 hour before to co-culture them with naive or primed MSC in a complete medium (FIG. 7A).

[1] = protocol 1: MSC pretreated 24 h with 1 μM, co-cultured with H9c2 under 350 μM H2O2 4 h
[2] = protocol 2: H9c2 exposed to 350 μM H2O2 4 h, then co-culture in complete medium with MSC pretreated with 1 μM
[3] = protocol 3: H9c2 350 μM H2O2 4 h, serum deprivation 1 h, then co-culture in complete medium with MSC pretreated with 1 μM

SMILES | Specific DNA fragmentation in H9c2 (anti-apoptotic effect of MSC) [1] | Specific DNA fragmentation in H9c2 (anti-apoptotic effect of MSC) [2] | Specific DNA fragmentation in H9c2 (anti-apoptotic effect of MSC) [3] | Specific DNA fragmentation in H9c2 (anti-apoptotic effect of MSC) (protocol 1: MSC pretreated 24 h with 0.1 μM, co-cultured with H9c2 under 350 μM H2O2 4 h)
COC(=O)c1sccc1S(=O)(=O)Nc1ccc(Nc2ccccc2)cc1OC [GSK0660] | lose their capacity to protect cardiomyocytes from apoptosis | did not change MSC protective properties | lose their capacity to protect cardiomyocytes from apoptosis | 
Cc1cc(SCc2sc(-c3ccc(C(F)(F)F)c(F)c3)nc2C)ccc1OCC(=O)O [GW0742] | exhibited a higher anti-apoptotic effect | induced a significant protective effect | induced a significant protective effect | exhibited a higher anti-apoptotic effect
